# Reference: publication PMC6978697 (The Journal of Pharmacology and Experimental Therapeutics, 2020)
# Target: T1, HA-DOPr (HA-tagged δ opioid receptor) (Homo sapiens, UniProt P41143)
# T1 construct: gene OPRD1; full-length wild type, HA-tagged
# Assay: [3H]-diprenorphine competition, HEK293 membranes
# Assay type: binding
# Conditions: read-out: [^3H]-Diprenorphine / pKi (converted)
# From the text: [3H]-diprenorphine competition, HEK293 membranes on HA-DOPr (HA-tagged δ opioid receptor)
# T1 sequence (P41143 whole entry, looked up): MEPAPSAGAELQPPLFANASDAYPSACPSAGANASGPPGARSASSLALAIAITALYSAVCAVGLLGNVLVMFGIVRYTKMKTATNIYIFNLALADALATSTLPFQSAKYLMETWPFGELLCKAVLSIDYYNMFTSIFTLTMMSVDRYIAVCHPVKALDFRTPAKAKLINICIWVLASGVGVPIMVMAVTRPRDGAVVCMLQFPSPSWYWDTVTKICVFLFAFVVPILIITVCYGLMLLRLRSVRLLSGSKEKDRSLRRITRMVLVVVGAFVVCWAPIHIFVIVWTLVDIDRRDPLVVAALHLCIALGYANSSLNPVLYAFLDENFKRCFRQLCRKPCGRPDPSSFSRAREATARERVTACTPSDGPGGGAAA
smiles,measurement,value
"CN(C)C(=O)c1ccc(C(=C2CCN(Cc3cncs3)CC2)c2cccc(C(N)=O)c2)cc1 [PN6047, 3-[[4-(dimethylcarbamoyl)phenyl]-[1-(thiazol-5-ylmethyl)-4-piperidylidene]methyl]benzamide]",Ki,56.2 nM
